The source made the active and inactive calls. The calls are words filed in the database; no cut-off is given here.
Experiments:
Assay type in all cases: functional
Chenopodium album = experiment: Phytotoxicity against Lamb's quarters assessed as leaf necrotic lesions at 100 ug by detached leaf spot method
[1] = tested on: Pectobacterium carotovorum; experiment: Antimicrobial activity against Erwinia carotovora at 500 ug/disk; conditions: for zone of inhibition at 500 µg/disc: read-out: IZ
Cornus florida [2] = experiment: Phytotoxicity against Dogwood NCPV 101 assessed as leaf necrotic lesions at 50 ug by detached leaf spot method
Colletotrichum acutatum = experiment: Antimicrobial activity against Colletotrichum acutatum at 500 ug/disk; conditions: for zone of inhibition at 500 µg/disc: read-out: IZ
Cornus florida [3] = experiment: Phytotoxicity against Dogwood NCPV 102 assessed as leaf necrotic lesions at 50 ug by detached leaf spot method
Escherichia coli = experiment: Antimicrobial activity against Escherichia coli at 500 ug/disk; conditions: for zone of inhibition at 500 µg/disc: read-out: IZ
Senna obtusifolia = experiment: Phytotoxicity against Sicklepod assessed as leaf necrotic lesions at 100 ug by detached leaf spot method
Nasturtium officinale = experiment: Phytotoxicity against watercress assessed as leaf necrotic lesions at 100 ug by detached leaf spot method
[4] = tested on: Agrobacterium tumefaciens; experiment: Antimicrobial activity against Agrobacterium tumefaciens at 500 ug/disk; conditions: for zone of inhibition at 500 µg/disc: read-out: IZ
Sorghum = experiment: Phytotoxicity against Sorghum assessed as leaf necrotic lesions at 100 ug by detached leaf spot method
Aspergillus flavus = experiment: Antimicrobial activity against Aspergillus flavus at 500 ug/disk; conditions: for zone of inhibition at 500 µg/disc: read-out: IZ
Ambrosia artemisiifolia = experiment: Phytotoxicity against ragweed assessed as leaf necrotic lesions at 100 ug by detached leaf spot method
Penicillium chrysogenum = experiment: Antimicrobial activity against Penicillium notatum at 500 ug/disk; conditions: for zone of inhibition at 500 µg/disc: read-out: IZ
[5] = tested on: Curtobacterium flaccumfaciens; experiment: Antimicrobial activity against Corynebacterium flaccumfaciens at 500 ug/disk; conditions: for zone of inhibition at 500 µg/disc: read-out: IZ
Convolvulaceae = experiment: Phytotoxicity against Morning glory assessed as leaf necrotic lesions at 100 ug by detached leaf spot method
Cornus florida [6] = experiment: Phytotoxicity against Dogwood NCPV 100 assessed as leaf necrotic lesions at 50 ug by detached leaf spot method
Datura stramonium = experiment: Phytotoxicity against Jimsonweed assessed as leaf necrotic lesions at 100 ug by detached leaf spot method
Sida spinosa = experiment: Phytotoxicity against Prickly sida assessed as leaf necrotic lesions at 100 ug by detached leaf spot method
Sorghum halepense = experiment: Phytotoxicity against Johnsongrass assessed as leaf necrotic lesions at 100 ug by detached leaf spot method

Row | Compound | Activity (Chenopodium album) [mm2] | zone of inhibition at 500 µg/disc [1] [mm] | Activity (Cornus florida [2]) [mm2] | zone of inhibition at 500 µg/disc (Colletotrichum acutatum) [mm] | Activity (Cornus florida [3]) [mm2] | zone of inhibition at 500 µg/disc (Escherichia coli) [mm] | Activity (Senna obtusifolia) [mm2] | Activity (Nasturtium officinale) [mm2] | zone of inhibition at 500 µg/disc [4] [mm] | Activity (Sorghum) [mm2] | zone of inhibition at 500 µg/disc (Aspergillus flavus) [mm] | Activity (Ambrosia artemisiifolia) [mm2] | zone of inhibition at 500 µg/disc (Penicillium chrysogenum) [mm] | zone of inhibition at 500 µg/disc [5] [mm] | Activity (Convolvulaceae) [mm2] | Activity (Cornus florida [6]) [mm2] | Activity (Datura stramonium) [mm2] | Activity (Sida spinosa) [mm2] | Activity (Sorghum halepense) [mm2] | Activity [1] | other results
1 | CC(C)=CCc1cc(C(=O)O)ccc1O | 23 | 5 | 14 | 8 | 24 | 0 | 22 | 56 | 8 | 75 | 4 | 36 | 6 | 5 | 28 | 38 | 31 | 42 | 46 |  | 
2 | CC(=O)Oc1cc(O)c2c(c1)C[C@H](C)OC2=O | 6 |  | 1 |  | 1 |  | 14 | 31 |  | 24 |  | 30 |  |  | 13 | 2 | 18 | 34 | 24 | inactive | Activity (Colletotrichum acutatum): inactive; Activity (Escherichia coli): inactive; Activity [4]: inactive; Activity (Aspergillus flavus): inactive; Activity (Penicillium chrysogenum): inactive; Activity [5]: inactive
3 | CC(=O)Oc1ccc(C(=O)O)cc1CC=C(C)C | 8 | 4 | 23 | 6 | 42 | 0 | 18 | 48 | 6 | 73 | 5 | 38 | 5 | 10 | 19 | 51 | 22 | 36 | 51 |  | 
4 | C[C@H]1Cc2cc(O)cc(O)c2C(=O)O1 | 14 |  | 14 |  | 10 |  | 20 | 36 |  | 40 |  | 60 |  |  | 24 | 7 | 24 | 40 | 34 | inactive | Activity (Colletotrichum acutatum): inactive; Activity (Escherichia coli): inactive; Activity [4]: inactive; Activity (Aspergillus flavus): inactive; Activity (Penicillium chrysogenum): inactive; Activity [5]: inactive
5 | O=C1CC[C@@H](O)c2cccc(O)c21 | 5 |  | 5 |  | 13 |  | 2 | 14 |  | 7 |  | 12 |  |  | 4 | 12 | 6 | 18 | 13 | inactive | Activity (Colletotrichum acutatum): inactive; Activity (Escherichia coli): inactive; Activity [4]: inactive; Activity (Aspergillus flavus): inactive; Activity (Penicillium chrysogenum): inactive; Activity [5]: inactive
6 | O=C(O)c1ccc(O)cc1 [PARABEN] | 9 | 0 | 10 | 0 | 5 | 5 | 10 | 17 | 0 | 19 | 0 | 15 | 0 | 9 | 15 | 11 | 12 | 31 | 22 |  | 
